The nature of the test: Case treatment of a patient with confirmed anti-NMDAR encephalitis. The note with it: for response to antipsychotics: high doses: aripiprazole 20-30 mg, clozapine 300-500 mg, clozapine 500 mg plus paliperidone 9 mg, before the diagnosis was confirmed. It is filed as in vivo.

On to `Cc1nc2n(c(=O)c1CCN1CCC(c3noc4cc(F)ccc34)CC1)CCCC2O` (stereo not shown) [paliperidone], for which the response to antipsychotics entry is listed as “very poor response”. `O=C1CCc2ccc(OCCCCN3CCN(c4cccc(Cl)c4Cl)CC3)cc2N1` [aripiprazole]: the response to antipsychotics result is given as “very poor response”. On to `O=C([O-])c1ccccc1.[Na+]` [Sodium benzoate, sodium benzoate], for which the clinical improvement result (sodium benzoate 1000 mg per day for 2 months, patient able to return to a normal life) was “obvious clinical improvement”. Besides, the “psychotic symptoms including dissociation and agitation” value (sodium benzoate 1000 mg per day for 2 months, patient refractory to antipsychotics, ECT and immunotherapy) is given as “reduced”.

For the origin of these results see US20210228515A1, “BENZOIC ACID OR A SALT AND DERIVATIVE THEREOF FOR USE IN PREVENTING OR TREATING ANTI-N-METHYL-D-ASPARTATE RECEPTOR ENCEPHALITIS” (EXCELSIOR PHARMATECH LABS, priority 2018, published 2021).
